Among the data in ChEMBL document CHEMBL4616609, “Potent non-hydroxamate inhibitors of histone deacetylase-8: Role and scope of an isoindolin-2-yl linker with an α-amino amide as the zinc-binding unit” (Bioorg Med Chem Lett, 2020) are IC50 values, retold here.

As a reminder, the IC50 is the midpoint of a concentration-inhibition curve. The low end stands for higher potency, the high end for lower potency.

Experiment [1] has as its target T1, Histone deacetylase 8 (Homo sapiens, UniProt Q9BY41).
T1 sequence (Q9BY41 whole entry): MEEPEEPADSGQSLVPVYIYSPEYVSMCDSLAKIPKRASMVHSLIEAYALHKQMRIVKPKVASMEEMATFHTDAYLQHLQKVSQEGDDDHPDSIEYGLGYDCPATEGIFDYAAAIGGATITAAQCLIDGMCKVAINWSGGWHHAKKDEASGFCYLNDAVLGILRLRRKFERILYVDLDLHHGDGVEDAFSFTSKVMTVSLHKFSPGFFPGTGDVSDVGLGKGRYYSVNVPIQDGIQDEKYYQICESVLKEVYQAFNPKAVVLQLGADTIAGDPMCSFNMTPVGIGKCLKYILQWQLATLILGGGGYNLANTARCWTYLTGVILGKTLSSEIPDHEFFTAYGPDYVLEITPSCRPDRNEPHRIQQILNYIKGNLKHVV
The experiment is described as follows: Inhibition of HDAC8 (unknown origin).

The target of experiment [2] is Histone deacetylase 1 (Homo sapiens, UniProt Q13547). The experiment is described as follows: Inhibition of HDAC1 (unknown origin).
Chain of Histone deacetylase 1 (Q13547 whole entry): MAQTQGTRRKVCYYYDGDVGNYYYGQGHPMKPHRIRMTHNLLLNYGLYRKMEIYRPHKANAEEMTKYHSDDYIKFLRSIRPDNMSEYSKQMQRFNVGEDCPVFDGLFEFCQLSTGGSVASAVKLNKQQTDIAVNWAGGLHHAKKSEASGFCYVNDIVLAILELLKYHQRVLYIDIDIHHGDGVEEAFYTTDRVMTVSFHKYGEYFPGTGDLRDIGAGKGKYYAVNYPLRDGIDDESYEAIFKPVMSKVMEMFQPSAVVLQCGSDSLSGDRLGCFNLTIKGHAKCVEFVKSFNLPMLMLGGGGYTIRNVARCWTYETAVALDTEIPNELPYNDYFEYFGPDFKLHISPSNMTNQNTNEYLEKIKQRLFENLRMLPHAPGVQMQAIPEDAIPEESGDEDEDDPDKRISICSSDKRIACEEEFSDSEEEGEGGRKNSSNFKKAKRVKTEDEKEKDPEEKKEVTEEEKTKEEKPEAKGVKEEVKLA
In experiment [3] the target is T2, Protein deacetylase HDAC6 (Homo sapiens, UniProt Q9UBN7).
T2 sequence (Q9UBN7 whole entry): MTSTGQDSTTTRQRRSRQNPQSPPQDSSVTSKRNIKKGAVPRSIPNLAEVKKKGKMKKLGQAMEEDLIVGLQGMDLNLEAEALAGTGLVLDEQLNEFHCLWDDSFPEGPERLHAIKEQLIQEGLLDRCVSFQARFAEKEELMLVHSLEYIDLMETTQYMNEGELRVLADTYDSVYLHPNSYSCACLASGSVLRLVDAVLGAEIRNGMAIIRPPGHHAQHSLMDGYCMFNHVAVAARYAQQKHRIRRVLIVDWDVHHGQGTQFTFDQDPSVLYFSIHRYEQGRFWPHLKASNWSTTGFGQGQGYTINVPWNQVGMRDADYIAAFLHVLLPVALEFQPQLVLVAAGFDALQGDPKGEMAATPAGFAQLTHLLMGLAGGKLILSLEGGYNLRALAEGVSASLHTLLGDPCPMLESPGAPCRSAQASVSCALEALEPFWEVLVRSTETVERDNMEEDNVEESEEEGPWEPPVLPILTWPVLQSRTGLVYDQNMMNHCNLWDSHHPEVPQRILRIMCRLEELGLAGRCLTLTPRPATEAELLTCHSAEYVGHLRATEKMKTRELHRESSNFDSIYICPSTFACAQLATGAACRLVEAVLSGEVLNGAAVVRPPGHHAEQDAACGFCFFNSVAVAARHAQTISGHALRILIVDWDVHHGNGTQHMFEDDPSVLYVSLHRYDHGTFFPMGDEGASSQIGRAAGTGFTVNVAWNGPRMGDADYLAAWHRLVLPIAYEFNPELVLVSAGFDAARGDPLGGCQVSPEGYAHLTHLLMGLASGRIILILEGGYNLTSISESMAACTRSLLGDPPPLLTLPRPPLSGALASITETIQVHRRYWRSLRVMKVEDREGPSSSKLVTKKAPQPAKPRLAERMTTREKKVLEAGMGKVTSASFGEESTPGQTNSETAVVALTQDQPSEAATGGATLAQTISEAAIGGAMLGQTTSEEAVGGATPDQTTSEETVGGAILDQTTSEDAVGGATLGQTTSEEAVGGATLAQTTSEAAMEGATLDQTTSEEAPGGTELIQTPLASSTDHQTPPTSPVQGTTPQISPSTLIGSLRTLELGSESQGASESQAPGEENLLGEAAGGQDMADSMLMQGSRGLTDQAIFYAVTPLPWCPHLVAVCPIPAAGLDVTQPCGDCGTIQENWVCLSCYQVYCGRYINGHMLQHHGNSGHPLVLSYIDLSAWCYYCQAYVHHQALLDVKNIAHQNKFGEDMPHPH
In words: Inhibition of HDAC6 (unknown origin).

The target of experiment [4] is Histone deacetylase 2 (Homo sapiens, UniProt Q92769). In words: Inhibition of HDAC2 (unknown origin).
Chain of Histone deacetylase 2 (Q92769 whole entry): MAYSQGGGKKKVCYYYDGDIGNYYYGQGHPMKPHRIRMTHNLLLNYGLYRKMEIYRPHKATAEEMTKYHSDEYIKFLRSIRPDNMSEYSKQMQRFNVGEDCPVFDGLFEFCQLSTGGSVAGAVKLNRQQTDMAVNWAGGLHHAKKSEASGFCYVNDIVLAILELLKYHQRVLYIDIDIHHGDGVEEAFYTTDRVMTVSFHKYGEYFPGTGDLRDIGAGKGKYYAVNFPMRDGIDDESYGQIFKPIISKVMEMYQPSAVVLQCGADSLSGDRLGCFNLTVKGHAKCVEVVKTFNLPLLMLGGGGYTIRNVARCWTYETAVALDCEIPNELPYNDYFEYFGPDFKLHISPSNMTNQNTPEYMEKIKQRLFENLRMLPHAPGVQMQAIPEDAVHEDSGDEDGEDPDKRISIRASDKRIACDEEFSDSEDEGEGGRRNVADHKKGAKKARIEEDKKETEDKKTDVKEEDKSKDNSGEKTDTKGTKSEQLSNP

Take `N[C@H](Cc1ccc(Cl)cc1Cl)C(=O)NC1Cc2ccccc2C1`: inhibition in experiment [1] was half-maximal at 8.76 µM (IC50).

`CN1CCN(C(=O)[C@H](N)Cc2ccccc2)CC1` returned an IC50 in experiment [1] of 11 µM.

With `N[C@H](Cc1ccc(Cl)cc1Cl)C(=O)NCCc1ccc(O)c(O)c1`, in experiment [1], 2.07 µM corresponded to half-maximal inhibition (IC50).

In experiment [1], `N[C@H](Cc1ccccc1)C(=O)N1CCc2ccccc2C1` yielded an IC50 of 10.7 µM.

Regarding `CNCc1ccc2c(c1)CN(C(=O)[C@H](N)Cc1ccc(Cl)cc1Cl)C2`, the IC50 in experiment [1] came to 0.176 µM. In turn, `N[C@H](Cc1ccc(Cl)cc1Cl)C(=O)NCCCc1ccccc1` showed an IC50 in experiment [1] of 2.01 µM.

In experiment [1], `C[C@H](NC(=O)[C@H](N)Cc1ccc(Cl)cc1Cl)c1ccccc1` returned an IC50 of 76.4 µM. `N[C@H](Cc1ccc(O)cc1)C(=O)N1CCc2ccccc2C1`: it took 21.3 µM to reach half-maximal inhibition in experiment [1] (IC50). On the same count and under the same terms, under `N[C@H](Cc1ccc(Cl)cc1Cl)C(=O)N1CCc2ccccc2C1` stands 2.06 µM; under `N[C@H](Cc1ccccc1)C(=O)N1CCN(c2ccccc2)CC1`, more than 600 µM; under `N[C@H](Cc1ccc(Cl)cc1Cl)C(=O)NCCc1ccccc1`, 2.5 µM.

For the molecule `N[C@H](Cc1ccc(Cl)cc1Cl)C(=O)O`, the IC50 in experiment [1] stood at 410 µM. For `N[C@H](Cc1ccc(Cl)cc1Cl)C(=O)NCCc1c[nH]c2ccc(O)cc12`, the IC50 in experiment [1] was 1.77 µM. `COc1ccc(CNC(=O)[C@H](N)Cc2ccc(Cl)cc2Cl)cc1` gave an IC50 in experiment [1] of 16.6 µM. Still for that read-out and setting: the same measure for `CNC(=O)c1ccc2c(c1)CN(C(=O)[C@H](N)Cc1ccc(Cl)cc1Cl)C2`: 0.258 µM. For the molecule `N[C@H](Cc1ccc(Cl)cc1Cl)C(=O)Nc1ccc2[nH]c3ccccc3c2c1`, in experiment [1], the concentration for half-maximal inhibition (IC50) amounted to 10.5 µM. Consider `N[C@H](Cc1ccc(Cl)cc1Cl)C(=O)N1Cc2ccc(NC(=O)Cc3ccccc3)cc2C1`, for which the IC50 in experiment [1] stood at 0.232 µM. As for `N[C@H](Cc1ccc(Cl)cc1Cl)C(=O)N1Cc2ccc(NC(=O)CCc3ccccc3)cc2C1`, in experiment [1], the IC50 is 0.259 µM. In experiment [1], `COc1ccc(NC(=O)[C@H](N)Cc2ccc(Cl)cc2Cl)cc1` showed an IC50 of 2.67 µM. Still for that read-out and setting: the same measure for `CNC(=O)[C@H](N)Cc1ccc(Cl)cc1Cl`: 16.5 µM; for `N[C@H](Cc1ccc(Cl)cc1Cl)C(=O)N1Cc2ccccc2C1`: 0.21 µM; for `C[C@@H](NC(=O)[C@H](N)Cc1ccc(Cl)cc1Cl)c1ccccc1`: 25.3 µM. Still for that read-out and setting: under `N[C@H](Cc1ccc(O)cc1)C(=O)N1Cc2ccccc2C1` stands 4.28 µM.

`CC(=O)Nc1ccc2c(c1)CN(C(=O)[C@H](N)Cc1ccc(Cl)cc1Cl)C2`: the IC50 in experiment [2] is 8.8 µM; in experiment [3] it was more than 30 µM; in experiment [1] it was 0.101 µM; in experiment [4], more than 30 µM. `N[C@H](Cc1ccc(Cl)cc1Cl)C(=O)NCCc1cccnc1` yielded a 50% inhibitory concentration (IC50) in experiment [1] of 3.85 µM.

The molecule `N[C@H](Cc1ccc(Cl)cc1Cl)C(=O)NCc1ccccc1` returned an IC50 in experiment [1] of 4.28 µM. For the molecule `N[C@H](Cc1ccc(Cl)cc1Cl)C(=O)NCc1cccs1`, 3 µM corresponded to half-maximal inhibition in experiment [1] (IC50). Still for that read-out and setting: the same measure for `N[C@H](Cc1ccccc1)C(=O)N1Cc2ccccc2C1`: 1.15 µM. For `N[C@H](Cc1ccc(Cl)cc1Cl)C(=O)NCCc1c[nH]c2ccccc12`, the IC50 in experiment [1] amounted to 0.97 µM. For the molecule `Nc1ccc2c(c1)CN(C(=O)[C@H](N)Cc1ccc(Cl)cc1Cl)C2`, in experiment [1], the IC50 stood at 0.13 µM. `N[C@H](Cc1ccc(Cl)cc1Cl)C(=O)NCCc1ccc(O)cc1` displayed an IC50 in experiment [1] of 1.25 µM.
